From US4599352A, “Antineoplastic platinum (IV) complexes and compositions” (priority 1984, dated 1986)

Experiments:
[1] = tested on: IP-Implanted L1210 Leukemia; assay: Dose-response against IP-implanted L1210 leukemia, IP treatment Days 1, 5 and 9, 30-day test (Table 2); assay type: in vivo, CD2Fl male mice
Experimental: (§1) Biological properties of the compounds of the present invention were determined following the protocol described in Cancer Chemotherapy Reports, Vol. 3, No. 3, 1972 which report is incorporated herein by reference.
(§2) This experiment (A8-00005 3LE31) was conducted at the Southern Research Institute, Birmingham, Ala. under the supervision of Dr. Daniel Griswold. The protocols were the same as those published previously (Geran et al., Cancer Chemotherapy Reports 3: No. 2, 1972 [Attachment 11]). 10^5 cells were implanted intraperitoneally in CD2Fl male mice on Day 0. Drug treatments were given intraperitoneally as single injections at the doses indicated on Days 1, 5 and 9 after tumor implantation. The diluent was saline except for NSC-271674 where 5% sodium bicarbonate was used. All drugs were prepared fresh on the day of injection, and all were administered in solution. Median survival times for both control and drug-treated mice were determined and expressed as a percentage (% T/C). Body weights were determined on Day 5 and expressed as a weight difference (body weight of the drug-treated animals minus that of the control animals in grams) (T-C). The diluent control animals lived a median of 8.4 days and gained 1.9 grams by Day 5 in this experiment. All animals, including Day 30 survivors, were used in the calculation of median survival times. The log10 change in tumor burden refers to the net log change in viable tumor cell population at the end of therapy (Rx) as compared to the start of therapy; e.g., a […] means that there was a […] and a 3 log change means there was a 1000-fold increase in tumor burden at the end of therapy. The tumor burden at the start of therapy was about 6.1×10^5 cells in this experiment.

IP L1210 [2] = assay: Activity against IP-implanted L1210 leukemia sensitive to cisplatin, 30 day test (Table 3); assay type: in vivo, Female CD2Fl mice
Experimental: as §1
(§3) Other known mechanisms of resistance for other classes of agents, such as gene amplification or target enzyme change or amplication, also need to be explored. The experiments summarized in Table 3 were conducted at the same time against both sublines using the same drug preparations. […] These experiments were repeated in a second laboratory as documented in Table 4. However, in these experiments the animals were held for 60 rather than 30 days to evaluate whether or not long-term survivors are produced after drug treatment in a more challenging setting.
as §2
These experiments (A8-00008 3LE31 and A8-00001 3DP31) were conducted concurrently at the Southern Research Institute, Birmingham, Ala. under the supervision of Dr. Daniel Griswold. See Table 4 for experimental details. The diluent control animals bearing L1210 leukemia lived a median of 8.6 days and gained 1.3 grams by Day 5. […] Female CD2Fl mice were used for these experiments.

IP L1210 [3] = assay: Activity against IP-implanted L1210 leukemia sensitive to cisplatin, 60 day test (Table 4); assay type: in vivo, Female CD2Fl mice
Experimental: as §1, §3, §2
(§4) These experiments (23-00081 3LE31 and 23-00003 3DP3l) were conducted concurrently at the Mason Research Institute, Worcester, MA under the supervision of Dr. William Cobb. See Table 4 for experimental details. The diluent control animals bearing L1210 leukemia lived a median of 8.3 days and gained 1.6 grams by Day 5. […] Female CD2Fl mice were used for these experiments.

IP L1210/Cisplatin = assay: Activity against IP-implanted L1210/Cisplatin leukemia resistant to cisplatin, 60 day test (Table 4); assay type: in vivo, Female CD2Fl mice
Experimental: as §1
Other known mechanisms of resistance for other classes of agents, such as gene amplification or target enzyme change or amplication, also need to be explored. The experiments summarized in Table 3 were conducted at the same time against both sublines using the same drug preparations. […] These experiments were repeated in a second laboratory as documented in Table 4. However, in these experiments the animals were held for 60 rather than 30 days to evaluate whether or not long-term survivors are produced after drug treatment in a more challenging setting. […]
as §4

SMILES: [Cl][Pt-2]1([Cl])([Cl])([Cl])[NH2+][C@H]2CCCC[C@@H]2[NH2+]1 [trans (d), (1S, 2S)-Tetrachloro-trans-1,2-cyclohexanediamine platinum (IV)]
- 30-Day Survivors/Total ([1]; 1 mg/kg/dose IP): 0/6
- Body Weight Difference ([1]; 1 mg/kg/dose IP): -0.3 Grams
- Median % T/C ([1]; 1 mg/kg/dose IP): 119%
- 30-Day Survivors/Total ([1]; 2 mg/kg/dose IP): 0/6
- Approx. Log10 Change in Tumor Burden at End of Rx ([1]; 2 mg/kg/dose IP): ~2.7 log10
- Body Weight Difference ([1]; 2 mg/kg/dose IP): -0.6 Grams
- Median % T/C ([1]; 2 mg/kg/dose IP): 134%
- 30-Day Survivors/Total ([1]; 4 mg/kg/dose IP): 1/6
- Approx. Log10 Change in Tumor Burden at End of Rx ([1]; 4 mg/kg/dose IP): ~-1.1 log10
- Body Weight Difference ([1]; 4 mg/kg/dose IP): -0.9 Grams
- Median % T/C ([1]; 4 mg/kg/dose IP): 211%
- 30-Day Survivors/Total ([1]; 8 mg/kg/dose IP): 3/6
- Approx. Log10 Change in Tumor Burden at End of Rx ([1]; 8 mg/kg/dose IP): ~-5.7 log10
- Body Weight Difference ([1]; 8 mg/kg/dose IP): -1.7 Grams
- Median % T/C ([1]; 8 mg/kg/dose IP): 357%
- Body Weight Difference ([1]; 8 mg/kg/dose IP, listed as trans d): less than -4 Grams
- 30-Day Survivors/Total ([1]; 16 mg/kg/dose IP): 1/6
- Approx. Log10 Change in Tumor Burden at End of Rx ([1]; 16 mg/kg/dose IP): ~-2.0 log10
- Body Weight Difference ([1]; 16 mg/kg/dose IP): -4.9 Grams
- Median % T/C ([1]; 16 mg/kg/dose IP): 226%
- Optimal dose (dose producing best therapeutic response) ([1]; day 1, 5 and 9 schedule): 8 mg/kg/injection
- 30 Day Survivors/Total (IP L1210 [2]; 1 mg/kg/dose): 0/6
- Approx. Log10 Change in Tumor Burden at End of RX (IP L1210 [2]; 1 mg/kg/dose): ~3.0 log10
- Median % T/C (IP L1210 [2]; 1 mg/kg/dose): 113%
- 30 Day Survivors/Total (IP L1210 [2]; 2 mg/kg/dose): 0/6
- Approx. Log10 Change in Tumor Burden at End of RX (IP L1210 [2]; 2 mg/kg/dose): ~2.5 log10
- Median % T/C (IP L1210 [2]; 2 mg/kg/dose): 144%
- 30 Day Survivors/Total (IP L1210 [2]; 4 mg/kg/dose): 2/6
- Approx. Log10 Change in Tumor Burden at End of RX (IP L1210 [2]; 4 mg/kg/dose): ~-1.2 log10
- Median % T/C (IP L1210 [2]; 4 mg/kg/dose): 209%
- 30 Day Survivors/Total (IP L1210 [2]; 8 mg/kg/dose): 3/6
- Approx. Log10 Change in Tumor Burden at End of RX (IP L1210 [2]; 8 mg/kg/dose): ~-5.9 log10
- Median % T/C (IP L1210 [2]; 8 mg/kg/dose): 348%
- 30 Day Survivors/Total (IP L1210 [2]; 16 mg/kg/dose): 0/6
- Median % T/C (IP L1210 [2]; 16 mg/kg/dose): 96%
- 60 Day Survivors/Total (IP L1210 [3]; 1 mg/kg/dose): 0/10
- Body Weight Difference (IP L1210 [3]; 1 mg/kg/dose): -0.6 Grams
- Median % T/C (IP L1210 [3]; 1 mg/kg/dose): 144%
- 60 Day Survivors/Total (IP L1210 [3]; 2 mg/kg/dose): 3/10
- Body Weight Difference (IP L1210 [3]; 2 mg/kg/dose): -1.0 Grams
- Median % T/C (IP L1210 [3]; 2 mg/kg/dose): 216%
- 60 Day Survivors/Total (IP L1210 [3]; 4 mg/kg/dose): 0/10
- Body Weight Difference (IP L1210 [3]; 4 mg/kg/dose): -1.2 Grams
- Median % T/C (IP L1210 [3]; 4 mg/kg/dose): 202%
- 60 Day Survivors/Total (IP L1210 [3]; 8 mg/kg/dose): 3/10
- Body Weight Difference (IP L1210 [3]; 8 mg/kg/dose): -3.1 Grams
- Median % T/C (IP L1210 [3]; 8 mg/kg/dose): 301%
- 60 Day Survivors/Total (IP L1210 [3]; 16 mg/kg/dose): 0/10
- Body Weight Difference (IP L1210 [3]; 16 mg/kg/dose): -7.0 Grams
- Median % T/C (IP L1210 [3]; 16 mg/kg/dose): Toxic
- 60 Day Survivors/Total (IP L1210/Cisplatin; 1 mg/kg/dose): 0/10
- Body Weight Difference (IP L1210/Cisplatin; 1 mg/kg/dose): -0.4 Grams
- Median % T/C (IP L1210/Cisplatin; 1 mg/kg/dose): 125%
- 60 Day Survivors/Total (IP L1210/Cisplatin; 2 mg/kg/dose): 0/10
- Body Weight Difference (IP L1210/Cisplatin; 2 mg/kg/dose): -0.2 Grams
- Median % T/C (IP L1210/Cisplatin; 2 mg/kg/dose): 147%
- 60 Day Survivors/Total (IP L1210/Cisplatin; 4 mg/kg/dose): 6/10
- Body Weight Difference (IP L1210/Cisplatin; 4 mg/kg/dose): -1.4 Grams
- Median % T/C (IP L1210/Cisplatin; 4 mg/kg/dose): 645%
- 60 Day Survivors/Total (IP L1210/Cisplatin; 8 mg/kg/dose): 1/10
- Body Weight Difference (IP L1210/Cisplatin; 8 mg/kg/dose): -4.8 Grams
- Median % T/C (IP L1210/Cisplatin; 8 mg/kg/dose): 193%
- 60 Day Survivors/Total (IP L1210/Cisplatin; 16 mg/kg/dose): 0/10
- Body Weight Difference (IP L1210/Cisplatin; 16 mg/kg/dose): -6.1 Grams
- Median % T/C (IP L1210/Cisplatin; 16 mg/kg/dose): Toxic
